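Tested at 5 concentrations; 48 h exposure; 96-well plates; endpoints linearly interpolated, else capped at highest concentration. TGI denotes the concentration required for complete inhibition of growth.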
What was measured:
Experiment in all cases: NCI tumour cell line growth inhibition, 48 h
[1] = tested on: RXF-631 renal
[2] = tested on: P388 leukemia
[3] = tested on: P388/ADR leukemia
[4] = tested on: SN12K1 renal

SMILES | TGI [1] [µM] | TGI [2] [µM] | TGI [3] [µM] | TGI [4] [µM]
COc1ccc(C(=O)C2=NON3OC23C(=O)c2ccc(OC)cc2)cc1 (stereo not given) | 31.8 |  |  | 
COc1nc2[nH]ccc2c(=O)[nH]1 | > 100 |  |  | 
Cn1c(=O)[nH]c2nncnc2c1=O |  | 148 | > 625 | > 625

From PubChem BioAssay (NCI)
